Test results taken from patent publication US9914724B2, “C-aryl glycosid derivatives, pharmaceutical composition, preparation process and uses thereof” (SHANGHAI DE NOVO PHARMATECH CO. LTD., priority 2014, dated 2018).

Key:
[1] = target: T1, SGLT-2 (Homo sapiens, UniProt P31639); assay: [14C]-AMG absorption in stable SGLT2 expressing Flp-in CHO cells (SGLT-2 activity screening assay); assay type: cell-based; conditions: 14C-AMG uptake, 37° C. 1 h, 1% DMSO
T1 sequence (P31639 1-672): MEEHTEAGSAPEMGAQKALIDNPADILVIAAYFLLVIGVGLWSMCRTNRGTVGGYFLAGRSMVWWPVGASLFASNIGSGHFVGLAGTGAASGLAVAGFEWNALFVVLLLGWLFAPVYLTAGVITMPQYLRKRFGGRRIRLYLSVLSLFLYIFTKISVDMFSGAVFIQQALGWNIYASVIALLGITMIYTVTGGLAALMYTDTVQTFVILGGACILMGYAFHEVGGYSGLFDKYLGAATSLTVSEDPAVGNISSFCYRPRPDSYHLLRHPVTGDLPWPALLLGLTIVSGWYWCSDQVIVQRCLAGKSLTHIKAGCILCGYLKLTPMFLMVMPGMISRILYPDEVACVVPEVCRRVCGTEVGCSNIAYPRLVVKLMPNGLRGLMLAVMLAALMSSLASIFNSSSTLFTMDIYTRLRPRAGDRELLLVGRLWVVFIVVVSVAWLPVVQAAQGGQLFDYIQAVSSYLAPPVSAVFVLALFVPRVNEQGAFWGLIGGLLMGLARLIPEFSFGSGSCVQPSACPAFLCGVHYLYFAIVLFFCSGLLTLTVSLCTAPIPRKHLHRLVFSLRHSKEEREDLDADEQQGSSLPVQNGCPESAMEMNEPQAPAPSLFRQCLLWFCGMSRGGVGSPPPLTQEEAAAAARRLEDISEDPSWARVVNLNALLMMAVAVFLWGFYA
From the text: (§1) Example 1: [^14C]-AMG Absorption in Stable SGLT1 and SGLT2 Expressing Flp-in CHO Cells (SGLT-1 and SGLT-2 Activity Screening Assay)
(§2) SGLT-1 and SGLT-2 cDNA clones were purchased from OriGene. After sequencing verification, the expression vectors were constructed based on pcDNA5/FRT using conventional molecular biology method. The expression vector was transfected into Flp-in CHO cells using Lipofectamin 2000. The transfected cells were subject hygromycin selection. The single clones of cells were selected by serial dilutions 4-5 weeks after transfection. The expression of SGLT-1 ? SGLT-2 were confirmed by RT-PCR and functional assay and cell line with strong signal was selected for subsequent study.
(§3) Culture of stable SGLT-1 and SGLT-2 expressing Flp-in CHO cell line: the culture media contain F12 medium (Invitrogen), 500 μg/ml hygromycin (Calbiochem) and 10% FBS (Invitrogen). Upon 80% confluency, the cells in the T75 flask were washed three times with PBS (Invitrogen), and 5 mL of Trpsin-EDTA solution (Invitrogen) was then added. The flask was gently rotated so that all the cells were submerged in the digestion solution. After the cells detach, 10 mL of culture medium was added and single cell suspension was prepared by pipetting up and down. The cell concentration was adjusted to 3×10^5/mL, 100 μL/well was added onto clear bottom 96-well plate (Corning).
(§4) The cells were ready for absorption assay once they attached after overnight culture. 12 h after cell plating, the cells were washed once with 150 μL/well absorption solution KRH-NMG (120 mM NMG, 4.7 mM KCl, 1.2 mM MgCl2, 2.2 mM CaCl2, 10 mM HEPES, pH 7.4 1 mM Tris). The solution was then removed from the well. 2.5 μCi/mL ^14C labeled AMG (PerkinElmer) Buffer KRH-Na+ (120 mM NaCl, 4.7 mM KCl, 1.2 mM MgCl2, 2.2 mM CaCl2, 10 mM HEPES, pH 7.4 1 mM Tris) was added at […] after washing with Buffer KRH-Na+ and KRH-NMG. The corresponding compound I was immediately added at 5 μL/well, ensuring the concentration of Dimethyl Sulfoxide was 1% (v/v). The plate was subsequently incubated at 37° C. for 1 h, after which 150 μL of ice cold wash buffer (120 mM NaCl, 4.7 mM KCl, 1.2 mM MgCl2, 2.2 mM CaCl2, 10 mM HEPES, 0.5 mM phlorizin, pH 7.4 1 mM Tris) was immediately added to terminate the reaction. Each well was washed three times with wash buffer and finally the solution was removed. Caution was taken to avoid cell detachment during the procedure. 20 μL/well of Lysis Buffer (0.1 mM NaOH) was added, the plate was vortexed at 900 rpm for 5 min. 80 μL/well of scintillation solution Microsint40 was added, and vortexed at 900 rpm for 5 min. The radioactivity was assayed using MicroBeta Trilux (PerkinElmer). The data was analyzed and IC50 of the compounds was calculated using XL-fit software.

[2] = test system: C57/BL6 mice; assay: Urinary glucose excretion test in C57/BL6 mice; assay type: in vivo; conditions: male C57/BL6 mice, 10 mg/Kg oral; for Glucose (excreted urine glucose): then 5 g/Kg glucose, total urine in 24 h, mean of 6 mice; for activity in urinary glucose excretion compared with compound A (Empagliflozin): 24 h urine, statement on Table 2
Protocol: Example 2: Urinary Glucose Excretion Test in C57/BL6 Mice
Adult male C57/BL6 mice with body weight over 20 g (Shanghai LSK Laboratory Animal Ltd) were orally dosed with test compound I (10 mg/Kg) after which the animals were fed with 5 g/Kg glucose. The animals were housed in metabolic cages to collect total urine in 24 h. The cage was washed with 5 mL of normal saline. Water and food were provided to the mice ad libitum during the 24 h period. The urine samples were immediately frozen after collection, and the glucose levels were then determined. The total amount of excreted urine glucose was calculated based on total amount of urine, and then converted to amount of excreted glucose (mg) per 200 mg body weight in 24 h based on mouse body weight. The result is shown in Table 2 (mean values of 6 mice).

[3] = target: T2, SGLT-1 (Homo sapiens, UniProt P13866); assay: [14C]-AMG absorption in stable SGLT1 expressing Flp-in CHO cells (SGLT-1 activity screening assay); assay type: cell-based; conditions: 14C-AMG uptake, 37° C. 1 h, 1% DMSO
T2 sequence (P13866 1-664): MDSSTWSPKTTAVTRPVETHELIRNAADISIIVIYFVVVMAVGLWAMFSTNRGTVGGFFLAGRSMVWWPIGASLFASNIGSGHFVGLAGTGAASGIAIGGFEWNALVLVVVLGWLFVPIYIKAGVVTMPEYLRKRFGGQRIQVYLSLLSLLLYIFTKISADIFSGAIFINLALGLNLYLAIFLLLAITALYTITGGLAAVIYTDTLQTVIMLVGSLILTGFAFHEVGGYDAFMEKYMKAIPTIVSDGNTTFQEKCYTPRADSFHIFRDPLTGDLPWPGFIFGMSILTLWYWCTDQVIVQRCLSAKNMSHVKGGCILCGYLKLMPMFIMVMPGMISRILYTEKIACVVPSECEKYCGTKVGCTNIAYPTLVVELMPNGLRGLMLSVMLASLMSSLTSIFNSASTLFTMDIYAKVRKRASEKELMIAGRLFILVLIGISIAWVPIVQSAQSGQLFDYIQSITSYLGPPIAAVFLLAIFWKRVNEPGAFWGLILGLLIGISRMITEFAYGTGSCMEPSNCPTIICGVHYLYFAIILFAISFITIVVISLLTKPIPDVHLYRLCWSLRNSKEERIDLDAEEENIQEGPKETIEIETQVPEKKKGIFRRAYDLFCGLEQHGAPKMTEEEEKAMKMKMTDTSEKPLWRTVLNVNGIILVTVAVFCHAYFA
From the text: as §1, §2, §3, §4

| IC50 [1] [nM] | IC50 [3] [nM] | SMILES | Glucose (excreted urine glucose) [2] | activity in urinary glucose excretion compared with compound A (Empagliflozin) [2] |
| --- | --- | --- | --- | --- |
| 6.6 | – | OC[C@H]1O[C@@H](c2ccc(Cl)c(Cc3ccc(O[C@H]4CCOC4)cc3)c2)[C@H](O)[C@@H](O)[C@@H]1O [A, Empagliflozin, reference compound] | 1536.5 mg/200 mg body weight/24 h | – |
| 1 | 584 | OC[C@H]1O[C@@H](c2ccc(Cl)c(Cc3ccc(OCC4OCc5ccccc54)cc3)c2)[C@H](O)[C@@H](O)[C@@H]1O (stereo partly drawn) [Compound I-36, (2S,3R,4R,5S,6R)-2-(4-chloro-3-(4-((1,3-dihydroisobenzofuran-1-yl)methoxy)benzyl)phenyl)-6-(hydroxymethyl)tetrahydro-2H-pyran-3,4,5-triol] | 1723.1 mg/200 mg body weight/24 h | – |
| 4.1 | 2100 | OC[C@H]1O[C@@H](c2ccc(Cl)c(Cc3ccc(OCC4Cc5ccccc5O4)cc3)c2)[C@H](O)[C@@H](O)[C@@H]1O (stereo partly drawn) [Compound I-22, (2S,3R,4R,5S,6R)-2-(4-chloro-3-(4-((2,3-dihydrobenzofuran-2-yl)methoxy)benzyl)phenyl)-6-(hydroxymethyl)tetrahydro-2H-pyran-3,4,5-triol] | 3106.6 mg/200 mg body weight/24 h | significantly more active than compound A |
| 3 | 301 | OC[C@H]1O[C@@H](c2ccc(Cl)c(Cc3ccc(OC[C@@H]4Cc5ccccc5O4)cc3)c2)[C@H](O)[C@@H](O)[C@@H]1O [Compound I-23, (2S,3R,4R,5S,6R)-2-(4-chloro-3-(4-(((S)-2,3-dihydrobenzofuran-2-yl)methoxy)benzyl)phenyl)-6-(hydroxymethyl)tetrahydro-2H-pyran-3,4,5-triol] | – | – |
| 15 | 2540 | OC[C@H]1O[C@@H](c2ccc(F)c(Cc3ccc(OCc4cc5ccccc5o4)cc3)c2)[C@H](O)[C@@H](O)[C@@H]1O [Compound I-2, (2S,3R,4R,5S,6R)-2-(3-(4-(benzofuran-2-ylmethoxy)benzyl)-4-fluorophenyl)-6-(hydroxymethyl)tetrahydro-2H-pyran-3,4,5-triol] | – | – |
| 23 | 2540 | OC[C@H]1O[C@@H](c2ccc(Cl)c(Cc3ccc(OCc4cc5ccccc5o4)c(F)c3)c2)[C@H](O)[C@@H](O)[C@@H]1O [Compound I-11, (2S,3R,4R,5S,6R)-2-(3-(4-(benzofuran-2-ylmethoxy)-3-fluorobenzyl)-4-chlorophenyl)-6-(hydroxymethyl)tetrahydro-2H-pyran-3,4,5-triol] | – | – |
| 5.6 | 320 | Cc1ccc([C@@H]2O[C@H](CO)[C@@H](O)[C@H](O)[C@H]2O)cc1Cc1ccc(OCc2cc3ccccc3o2)cc1 [Compound I-3, (2S,3R,4R,5S,6R)-2-(3-(4-(benzofuran-2-ylmethoxy)benzyl)-4-methylphenyl)-6-(hydroxymethyl)tetrahydro-2H-pyran-3,4,5-triol] | – | – |
| 13 | 151 | OC[C@H]1O[C@@H](c2ccc(Cl)c(Cc3ccc(OCc4cc5ccc(F)cc5o4)cc3)c2)[C@H](O)[C@@H](O)[C@@H]1O [Compound I-9, (2S,3R,4R,5S,6R)-2-(4-chloro-3-(4-((6-fluorobenzofuran-2-yl)methoxy)benzyl)phenyl)-6-(hydroxymethyl)tetrahydro-2H-pyran-3,4,5-triol] | – | – |
| 7 | – | OC[C@H]1O[C@@H](c2ccc(Cl)c(Cc3ccc(OCc4cc5ccccc5o4)cc3)c2)[C@H](O)[C@@H](O)[C@@H]1O [Compound I-1, (2S,3R,4R,5S,6R)-2-(3-(4-(benzofuran-2-ylmethoxy)benzyl)-4-chlorophenyl)-6-(hydroxymethyl)tetrahydro-2H-pyran-3,4,5-triol] | 1646.9 mg/200 mg body weight/24 h | significantly more active than compound A |
